Biological target: T1, Androgen Receptor (AR) (Homo sapiens, UniProt P10275)
T1 construct: endogenous in cells; host or cells: VCaP
T1 sequence (P10275 1-920): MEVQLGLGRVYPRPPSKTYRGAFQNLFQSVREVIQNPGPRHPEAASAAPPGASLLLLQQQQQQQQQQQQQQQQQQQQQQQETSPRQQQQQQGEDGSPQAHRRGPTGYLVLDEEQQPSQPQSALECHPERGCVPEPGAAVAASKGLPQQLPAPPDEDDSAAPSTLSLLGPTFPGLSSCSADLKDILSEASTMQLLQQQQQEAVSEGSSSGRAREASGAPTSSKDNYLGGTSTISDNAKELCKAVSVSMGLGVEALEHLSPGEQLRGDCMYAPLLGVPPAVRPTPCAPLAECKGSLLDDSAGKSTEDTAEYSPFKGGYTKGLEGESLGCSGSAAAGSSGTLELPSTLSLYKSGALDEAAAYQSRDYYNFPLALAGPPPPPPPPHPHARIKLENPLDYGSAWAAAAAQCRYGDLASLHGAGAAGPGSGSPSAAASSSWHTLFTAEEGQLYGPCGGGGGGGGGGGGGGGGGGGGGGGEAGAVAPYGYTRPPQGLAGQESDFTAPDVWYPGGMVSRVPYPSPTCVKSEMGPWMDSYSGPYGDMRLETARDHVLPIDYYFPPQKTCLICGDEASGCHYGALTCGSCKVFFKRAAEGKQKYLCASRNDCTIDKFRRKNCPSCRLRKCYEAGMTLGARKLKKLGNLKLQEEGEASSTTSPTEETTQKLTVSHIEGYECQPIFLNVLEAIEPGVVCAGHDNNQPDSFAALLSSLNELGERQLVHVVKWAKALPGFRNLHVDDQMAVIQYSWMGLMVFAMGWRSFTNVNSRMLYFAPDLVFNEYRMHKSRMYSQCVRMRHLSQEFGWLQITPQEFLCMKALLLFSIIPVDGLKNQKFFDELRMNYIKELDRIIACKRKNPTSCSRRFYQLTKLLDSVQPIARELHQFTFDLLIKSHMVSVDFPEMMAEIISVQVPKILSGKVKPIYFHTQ
Assay: AR immunofluorescence staining, high content imager, VCaP cells
Format: cell-based
Settings: for DC50: AR degradation by immunofluorescence; for Dmax: maximal AR degradation
Summary of the method: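 VCaP cells treated with compound, fixed in 4% PFA (8% 2× solution added directly for low-adherence lines), permeabilised with 0.1% Triton X-100 and blocked. Stained overnight at 4° C with anti-AR antibody, then FITC anti-rabbit secondary plus phalloidin and DAPI/Hoechst. Read by high-content imaging.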

SMILES	DC50	Dmax
COc1cc(O[C@H]2C(C)(C)[C@H](NC(=O)c3ccc(N4CCC(CN5CCN(c6ccc(C(=O)NC7CCC(=O)NC7=O)c(F)c6)CC5)CC4)cc3)C2(C)C)ccc1C#N (stereo partly drawn) [Compound 1, 4-(4-((1-(4-(((1R,3R)-3-(4-cyano-3-methoxyphenoxy)-2,2,4,4-tetramethylcyclobutyl)carbamoyl)phenyl)piperidin-4-yl)methyl)piperazin-1-yl)-N-(2,6-dioxopiperidin-3-yl)-2-fluorobenzamide]	< 1 nM	≥ 70%
N#Cc1ccc(O[C@H]2CC[C@H](NC(=O)c3ccc(N4CCC(CN5CCN(c6ccc(C(=O)NC7CCC(=O)NC7=O)c(F)c6)CC5)CC4)nn3)CC2)cc1Cl (stereo partly drawn) [Compound 26, N-((1R,4R)-4-(3-chloro-4-cyanophenoxy)cyclohexyl)-6-(4-((4-(4-((2,6-dioxopiperidin-3-yl)carbamoyl)-3-fluorophenyl)piperazin-1-yl)methyl)piperidin-1-yl)pyridazine-3-carboxamide]	< 1 nM	≥ 70%
COc1cc(O[C@H]2C(C)(C)[C@H](NC(=O)c3ccc(N4CCC(CN5CCN(c6ccc(C(=O)N[C@H]7CCC(=O)NC7=O)c(F)c6)CC5)CC4)cc3)C2(C)C)ccc1C#N [Compound 21, 4-(4-((1-(4-(((1R,3R)-3-(4-cyano-3-methoxyphenoxy)-2,2,4,4-tetramethylcyclobutyl)carbamoyl)phenyl)piperidin-4-yl)methyl)piperazin-1-yl)-N—((S)-2,6-dioxopiperidin-3-yl)-2-fluorobenzamide]	< 1 nM	≥ 70%
CC(C)N(CC1CCN(c2cnc(C(=O)N[C@H]3CC[C@H](Oc4ccc(C#N)c(Cl)c4)CC3)cn2)CC1)[C@H]1C[C@H](Oc2ccc(C(=O)NC3CCC(=O)NC3=O)c(F)c2)C1 (stereo partly drawn) [Compound 25, N-((1R,4R)-4-(3-chloro-4-cyanophenoxy)cyclohexyl)-5-(4-((((1R,3R)-3-(4-((2,6-dioxopiperidin-3-yl)carbamoyl)-3-fluorophenoxy)cyclobutyl)(isopropyl)amino)methyl)piperidin-1-yl)pyrazine-2-carboxamide]	< 1 nM	50 to 70%
N#Cc1ccc(O[C@H]2CC[C@H](NC(=O)c3ccc(N4CCC(CN5CCN(c6cccc(C(=O)NC7CCC(=O)NC7=O)c6)CC5)CC4)nn3)CC2)cc1Cl (stereo partly drawn) [Compound 29, N-((1R,4R)-4-(3-chloro-4-cyanophenoxy)cyclohexyl)-6-(4-((4-(3-((2,6-dioxopiperidin-3-yl)carbamoyl)phenyl)piperazin-1-yl)methyl)piperidin-1-yl)pyridazine-3-carboxamide]	< 1 nM	< 50%
COc1cc(O[C@H]2C[C@H](N3CCOC4(CCN(c5ccc(C(=O)N[C@H]6C(C)(C)[C@H](Oc7cc(C)c(C#N)c(C)c7)C6(C)C)cc5)CC4)C3)C2)ccc1C(=O)N[C@H]1CCC(=O)NC1=O [Compound 35, 4-[3-[9-[4-[[3-(4-cyano-3,5-dimethyl-phenoxy)-2,2,4,4-tetramethyl-cyclobutyl]carbamoyl]phenyl]-1-oxa-4,9-diazaspiro[5.5]undecan-4-yl]cyclobutoxy]-N-[(3S)-2,6-dioxo-3-piperidyl]-2-methoxy-benzamide]	< 1 nM	≥ 70%
COc1cc(O[C@H]2C[C@H](N3CCOC4(CCN(c5ccc(C(=O)N[C@H]6C(C)(C)[C@H](Oc7cc(C)c(C#N)c(C)c7)C6(C)C)cc5)CC4)C3)C2)cc(C(=O)NC2CCC(=O)NC2=O)c1 (stereo partly drawn) [Compound 76, N-(2,6-dioxopiperidin-3-yl)-3-methoxy-5-[(1r,3r)-3-[9-(4-{[(1r,3r)-3-(4-cyano-3,5-dimethylphenoxy)-2,2,4,4-tetramethylcyclobutyl]carbamoyl}phenyl)-1-oxa-4,9-diazaspiro[5.5]undecan-4-yl]cyclobutoxy]benzamide]	1 to 10 nM	< 50%
COc1cc(N2CCN(C[C@H]3CN(c4ccc(C(=O)N[C@H]5C(C)(C)[C@H](Oc6cc(C)c(C#N)c(C)c6)C5(C)C)cc4)CCO3)CC2)ccc1C(=O)NC1CCC(=O)NC1=O (stereo partly drawn) [Compound 59, N-(2,6-dioxopiperidin-3-yl)-2-methoxy-4-(4-{[(2S)-4-(4-{[(1r,3r)-3-(4-cyano-3,5-dimethylphenoxy)-2,2,4,4-tetramethylcyclobutyl]carbamoyl}phenyl)morpholin-2-yl]methyl}piperazin-1-yl)benzamide]	< 1 nM	≥ 70%
COc1cc(O[C@H]2C(C)(C)[C@H](NC(=O)c3ccc(N4CCC(CN5CCN(c6cnc(C(=O)N[C@H]7CCC(=O)NC7=O)nc6)CC5)CC4)cc3)C2(C)C)ccc1C#N [Compound 39, 5-(4-((1-(4-(((1r,3r)-3-(4-cyano-3-methoxyphenoxy)-2,2,4,4-tetramethylcyclobutyl)carbamoyl)phenyl)piperidin-4-yl)methyl)piperazin-1-yl)-N—((S)-2,6-dioxopiperidin-3-yl)pyrimidine-2-carboxamide]	< 1 nM	≥ 70%
COc1cc(O[C@H]2C(C)(C)[C@H](NC(=O)c3ccc(N4CCOC(CN(C(C)C)[C@H]5C[C@@H](Oc6ccc(F)c(C(=O)N[C@H]7CCC(=O)NC7=O)c6)C5)C4)cc3)C2(C)C)ccc1C#N (stereo partly drawn) [Compound 62, 4-(2-{[(propan-2-yl)[(1r,3r)-3-(3-{[(3S)-2,6-dioxopiperidin-3-yl]carbamoyl}-4-fluorophenoxy)cyclobutyl]amino]methyl}morpholin-4-yl)-N-[(1r,3r)-3-(4-cyano-3-methoxyphenoxy)-2,2,4,4-tetramethylcyclobutyl]benzamide]	< 1 nM	50 to 70%
COc1cc(C(=O)NC2CCC(=O)NC2=O)ccc1O[C@H]1C[C@H](N(CC2CCN(c3ccc(C(=O)N[C@H]4C(C)(C)[C@H](Oc5cc(C)c(C#N)c(C)c5)C4(C)C)cc3)CC2)C(C)C)C1 (stereo partly drawn) [Compound 66, N-(2,6-dioxopiperidin-3-yl)-3-methoxy-4-[(1r,3r)-3-[(propan-2-yl)({[1-(4-{[(1r,3r)-3-(4-cyano-3,5-dimethylphenoxy)-2,2,4,4-tetramethylcyclobutyl]carbamoyl}phenyl)piperidin-4-yl]methyl})amino]cyclobutoxy]benzamide]	< 1 nM	50 to 70%
COCCN(C[C@H]1CN(c2ccc(C(=O)N[C@H]3C(C)(C)[C@H](Oc4cc(C)c(C#N)c(C)c4)C3(C)C)cc2)CCO1)[C@H]1C[C@H](Oc2ccc(C(=O)N[C@H]3CCC(=O)NC3=O)c(F)c2)C1 [Compound 67, 4-[(2S)-2-{[(2-methoxyethyl)[(1r,3r)-3-(4-{[(3S)-2,6-dioxopiperidin-3-yl]carbamoyl}-3-fluorophenoxy)cyclobutyl]amino]methyl}morpholin-4-yl]-N-[(1r,3r)-3-(4-cyano-3,5-dimethylphenoxy)-2,2,4,4-tetramethylcyclobutyl]benzamide]	1 to 10 nM	≥ 70%
Cc1cc(O[C@H]2C(C)(C)[C@H](NC(=O)c3ccc(N4CCO[C@@H](CN(C(C)C)[C@H]5C[C@H](Oc6ccc(C(=O)N[C@H]7CCC(=O)NC7=O)c(F)c6)C5)C4)cc3)C2(C)C)cc(C)c1C#N [Compound 65, 4-[(2S)-2-{[(propan-2-yl)[(1r,3r)-3-(4-{[(3S)-2,6-2,2,4,4-dioxopiperidin-3-yl]carbamoyl}-3-fluorophenoxy)cyclobutyl]amino]methyl}morpholin-4-yl]-N-[(1r,3r)-3-(4-cyano-3,5-dimethylphenoxy)-2,2,4,4-tetramethylcyclobutyl]benzamide]	< 1 nM	50 to 70%
CC1(C)[C@H](NC(=O)c2ccc(C#CC3CCN(C4CCN(c5ccc(C(=O)N[C@H]6CCC(=O)NC6=O)c(F)c5)CC4)CC3)cc2)C(C)(C)[C@H]1Oc1ccc(C#N)c(Cl)c1 [Compound 36, N-[(3S)-2,6-dioxopiperidin-3-yl]-2-fluoro-4-{4-[2-(4-{[(1r,3r)-3-(3-chloro-4-cyanophenoxy)-2,2,4,4-tetramethylcyclobutyl]carbamoyl}phenyl)ethynyl]-[1,4′-bipiperidin]-1′-yl}benzamide]	< 1 nM	≥ 70%
COc1cc(O[C@H]2C(C)(C)[C@H](NC(=O)c3ccc(N4CCC(CN5CCN(c6ccc(C(=O)N[C@@H]7CCC(=O)NC7=O)c(F)c6)CC5)CC4)cc3)C2(C)C)ccc1C#N [Compound 14, 4-(4-((1-(4-(((1R,3R)-3-(4-cyano-3-methoxyphenoxy)-2,2,4,4-tetramethylcyclobutyl)carbamoyl)phenyl)piperidin-4-yl)methyl)piperazin-1-yl)-N—((R)-2,6-dioxopiperidin-3-yl)-2-fluorobenzamide]	1 to 10 nM	< 50%

Source: US12427144B2, “Compounds and methods for the targeted degradation of androgen receptor” (Arvinas Operations, Inc., priority 2019, dated 2025)
